Biological target: T1, DRD4 (Homo sapiens, UniProt P21917)
T1 construct: purchased Promega (in-house HiBiT-GPCR construct library, NanoBRET)
T1 sequence (P21917 1-419): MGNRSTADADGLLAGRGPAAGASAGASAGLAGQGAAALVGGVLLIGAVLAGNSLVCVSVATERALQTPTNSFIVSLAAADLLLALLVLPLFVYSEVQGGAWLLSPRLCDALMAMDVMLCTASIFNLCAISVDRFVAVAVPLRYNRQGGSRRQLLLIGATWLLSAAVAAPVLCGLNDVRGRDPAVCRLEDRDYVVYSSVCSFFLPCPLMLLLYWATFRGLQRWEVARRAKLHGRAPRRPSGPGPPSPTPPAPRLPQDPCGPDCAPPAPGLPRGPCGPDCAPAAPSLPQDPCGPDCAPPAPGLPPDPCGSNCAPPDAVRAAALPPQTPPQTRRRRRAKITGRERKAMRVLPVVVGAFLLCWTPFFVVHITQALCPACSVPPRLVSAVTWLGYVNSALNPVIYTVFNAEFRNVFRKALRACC
Test: NanoBRET screen HiBiT-DRD4 in HEK293
Type: binding
Procedure: Each tracer candidate was screened across the entire library of HiBiT-GPCR constructs using NanoBRET as the detection modality. As depicted in Figure 4A, the specificity of interactions was evaluated through decrease in BRET due to competitive displacement of a bound tracer by excess parental compound. Each tracer was analyzed for binding to each HiBiT-GPCR fusion in the absence and in the presence of competing parental compound. Briefly, HEK293 cells were transfected with HiBiT-GPCR constructs diluted into promoterless DNA to reduce expression and maximize translocation to the cell surface. Each tracer candidate was then screened at concentrations of 1 μM and 0.1 μM across cells expressing these fusions. Cells were treated for 1.5 h with tracer either alone or in the presence of 20 μM competing parental compound (i.e., control). BRET was measured upon addition of purified LgBiT and subsequent complementation with HiBiT genetically fused to a GPCR. The specificity of interactions was assessed through a decrease in BRET signal due to competitive displacement of the bound tracer. To further gauge the robustness of these interactions, the fold response over the control (i.e., BRETtracer/BRETcontrol) was calculated. We chose a 1.5-fold response, which translates to ≥7-fold signal over noise as the minimal threshold required to score an interaction as positive.
HiBiT-GPCR DNA constructs were diluted in 10 mM Tris pH 8 to a final concentration of 0.01 μg/μL, arrayed in 96-well plates and stored at −20 °C. For transfection, HEK293 cells were suspended in Opti-MEM (without phenol red) supplemented with 2% fetal bovine serum (Seradigm) and 100 units/mL penicillin–streptomycin (Gibco) at a final concentration of 220,000 cells/mL and dispensed into white 96-well plates at 90 μL/well. Subsequent transfections and screens were carried using an Agilent Bravo Automated Liquid Handling Platform. First, the 96-well HiBiT DNA arrays were diluted 25-fold in Opti-MEM (without serum or phenol red) to a final concentration of 0.0004 μg/μL and 20 μL of the diluted DNAs were transferred into new 96-well plates. Next, promoterless carrier DNA (1 μg/μL) was diluted 25-fold (0.04 μg/μL) and then dispensed into the diluted arrays at 20 μL/well. Following brief mixing, Viafect transfection reagent (Promega) diluted 16-fold into Opti-MEM was dispensed into the plates at 40 μL/well. After mixing by pipetting, plates were incubated for 10 min on the pipetting station deck. The DNA-transfection reagent complexes were then added to plates containing cells. To facilitate the screen, 10 μL of DNA-transfection reagent complexes were added in duplicates to the top 4 and bottom 4 rows, resulting in two identical 48-well arrays per plate. Plates with transfected cells were incubated for 18–20 h at 37 °C/5% CO2. A screen of each tracer across the entire library using two different concentrations requires duplicate plates of transfected cells. Depending on the number of tracers being screened, transfections can be scaled up using the same ratios. The next day, for each tracer, four 20× screening solutions in tracer dilution buffer (Promega) were prepared: two duplicates at final concentration of 20 μM and two duplicates at a final concentration of 2 μM. […] The four resulting solutions were diluted 4-fold in Opti-MEM without serum or phenol red to generate 5× solutions (5 µM and 0.5 µM tracer +/− 100 μM competing compound). To screen the library, a BioTek MultiFlo FX liquid dispenser was used to dispense 22.5 µL of tracer solution to the top 4 rows and 22.5 µL tracer + competing compound solution to the 4 bottom rows. Plates were briefly mixed on an orbital shaker and incubated for 1.5 h at room temperature. […] Plates were briefly mixed on an orbital shaker and incubated for 15 min to allow complementation.

SMILES	NanoBRET Fold Response (DRD4, tracer 0.1μM)	NanoBRET Fold Response (DRD4, tracer 1μM)	further results
CCOC(=O)c1cc(C#N)c(N2CCC(C(=O)NS(=O)(=O)Cc3ccccc3/C=C/C(=O)NCCNC(=O)CCc3ccc4n3[B-](F)(F)[N+]3=C(c5ccc[nH]5)C=CC3=C4)CC2)nc1C [AZD1283-1-NB590]			NanoBRET Fold Response (DRD4, 0.1μM): 1.05; NanoBRET Fold Response (DRD4, 1μM): 1.13
N#CN/C(=N\CCNC(=O)c1ccc(N)cc1)NCCCOc1cccc(CN2CCCCC2)c1 [Aminopotentidine (unmodified)]			NanoBRET Fold Response (DRD4, other tracers/Aminopotentidine (unmodified), 0.1μM): 1.24; NanoBRET Fold Response (DRD4, other tracers/Aminopotentidine (unmodified), 1μM): 1.17
N#CN=C(NCCCOc1cccc(CN2CCCCC2)c1)NCCNC(=O)CCOCCOCCOCCOCCNC(=O)CCc1ccc2n1[B-](F)(F)[N+]1=C(c3ccc[nH]3)C=CC1=C2 [Aminopotentidine-2-NB590]	1.00	0.98	
CN(C)CCC=C1c2ccccc2CCc2ccc(C(=O)NCCNC(=O)CCOCCOCCOCCOCCNC(=O)CCc3ccc4n3[B-](F)(F)[N+]3=C(c5ccc[nH]5)C=CC3=C4)cc21 [Amitriptyline-a-2-NB590]			NanoBRET Fold Response (tracer at 0.1μM): 1.07; NanoBRET Fold Response (tracer at 1μM): 1.09
CN(C)CCC=C1c2ccccc2CCc2ccc(C(=O)NCCNC(=O)CCOCCOCCOCCOCCNC(=O)CCc3ccc4n3[B-](F)(F)[N+]3=C(c5ccc[nH]5)C=CC3=C4)cc21 [Amitriptyline-b-2-NB590]			NanoBRET Fold Response (tracer at 0.1μM, listed as amitriptyline-b-2-NB590): 1.05
CN(CCC=C1c2ccccc2CCc2ccccc21)C(=O)CCOCCOCCOCCOCCNC(=O)CCc1ccc2n1[B-](F)(F)[N+]1=C(c3ccc[nH]3)C=CC1=C2 [Amitriptyline-e-2-NB590]			NanoBRET Fold Response (tracer at 1μM): 1.01
COc1ccc2c(n1)c(CCNC(C)=O)cn2CCNC(=O)CCc1ccc2n1[B-](F)(F)[N+]1=C(c3ccc[nH]3)C=CC1=C2 [Azamelatonin-1-NB590]			NanoBRET Fold Response (0.1μM tracer): 0.77; NanoBRET Fold Response (1μM tracer): 1.03
COc1ccc2[nH]c(-c3ccc(CNC(=O)CCOCCOCCOCCOCCNC(=O)CCc4ccc5n4[B-](F)(F)[N+]4=C(c6ccc[nH]6)C=CC4=C5)cc3)c(CCNC(C)=O)c2n1 [AzomelatoninICO9-2-NB590]			NanoBRET Fold Response (0.1μM tracer): 0.59; NanoBRET Fold Response (1μM tracer): 0.88
O=C(CCOCCOCCOCCOCCNC(=O)CCc1ccc2n1[B-](F)(F)[N+]1=C(c3ccc[nH]3)C=CC1=C2)NCCCN1CCN(C2=Nc3cc(Cl)ccc3Nc3ccccc32)CC1 [Clozapine-a-2-NB590]			NanoBRET Fold Response (DRD4, 0.1μM tracer): 3.46; NanoBRET Fold Response (DRD4, 1μM tracer): 3.88
O=C(CCOCCOCCOCCOCCNC(=O)CCc1ccc2n1[B-](F)(F)[N+]1=C(c3ccc[nH]3)C=CC1=C2)NCCCN1CCN(C2=Nc3ccccc3Oc3ccc(Cl)cc32)CC1 [Loxapine-a-2-NB590]	1.57	2.56	
COc1ccccc1N1CCN(CCCCN2C(=O)c3ccc(CNC(=O)CCOCCOCCOCCOCCNC(=O)CCc4ccc5n4[B-](F)(F)[N+]4=C(c6ccc[nH]6)C=CC4=C5)cc3C2=O)CC1 [NAN-190-2-NB590]	1.09	1.80	
COc1ccccc1N1CCN(CCCCN2C(=O)c3ccc(CNC(=O)CCOCCNC(=O)c4ccc(CNC(=O)CCc5ccc6n5[B-](F)(F)[N+]5=C(c7ccc[nH]7)C=CC5=C6)cc4)cc3C2=O)CC1 [NAN-190-3-NB590]	1.23	1.92	
O=C(CCc1ccc2n1[B-](F)(F)[N+]1=C(c3ccc[nH]3)C=CC1=C2)NCc1ccc(C(=O)NCCOCCC(=O)N[C@@H]2CC[C@@]3(O)[C@H]4Cc5ccc(O)c6c5[C@@]3(CCN4CC3CC3)[C@H]2O6)cc1 [Naltrexone-3-NB590]	0.82	1.11	
Cc1cc2c(s1)Nc1ccccc1N=C2N1CCN(CCCNC(=O)CCOCCOCCOCCOCCNC(=O)CCc2ccc3n2[B-](F)(F)[N+]2=C(c4ccc[nH]4)C=CC2=C3)CC1 [Olanzapine-a-2-NB590]	1.68	2.27	
O=C(CCc1ccc2n1[B-](F)(F)[N+]1=C(c3ccc[nH]3)C=CC1=C2)NCc1ccc(C(=O)NCCOCCOCCNCC(O)COc2cccc3ccccc23)cc1 (centres unmarked) [Propranolol-3-NB590]			NanoBRET Fold Response (DRD4, 0.1μM): 0.84; NanoBRET Fold Response (DRD4, 1μM): 0.99
O=C(CCc1ccc2n1[B-](F)(F)[N+]1=C(c3ccc[nH]3)C=CC1=C2)NCCOCCOCCNC(=O)OCCOCCN1CCN(C2=Nc3ccccc3Sc3ccccc32)CC1 [Quetiapine-a-2-NB590]	1.05	1.49	
Cc1nc2n(c(=O)c1CCN1CCC(c3noc4cc(F)ccc34)CC1)CCCC2OC(=O)NCCOCCOCCOCCOCCNC(=O)CCc1ccc2n1[B-](F)(F)[N+]1=C(c3ccc[nH]3)C=CC1=C2 (centres unmarked) [Risperidone-2-NB590]	1.55	3.40	
CC(C)N(CC[C@H](c1ccccc1)c1cc(CCNC(=O)CCOCCOCCOCCOCCNC(=O)CCc2ccc3n2[B-](F)(F)[N+]2=C(c4ccc[nH]4)C=CC2=C3)ccc1O)C(C)C [Tolterodine-2-NB590]	0.99	0.96	
CC(C)N(CC[C@H](c1ccccc1)c1cc(CCNC(=O)c2ccc(CNC(=O)CCc3ccc4n3[B-](F)(F)[N+]3=C(c5ccc[nH]5)C=CC3=C4)cc2)ccc1O)C(C)C [Tolterodine-BZ-NB590]	0.94	1.09	
CCCn1c(=O)c2[nH]c(-c3ccc(OCC(=O)NCCNC(=O)CCOCCNC(=O)c4ccc(CNC(=O)CCc5ccc6n5[B-](F)(F)[N+]5=C(c7ccc[nH]7)C=CC5=C6)cc4)cc3)nc2n(CCC)c1=O [XAC-3-NB590]	1.27	0.82	
